From ChEMBL document CHEMBL1201861, “Genomics of Drug Sensitity in Cancer screening data, Wellcome Trust Sanger Institute”

How the values were obtained:
Assay in all cases: cells
[1] = tested on: KARPAS-45; type: functional, cell-based; conditions: Homo sapiens;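 note: inhibition of cell line growth, read out through a viability assay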
Description: SANGER: Inhibition of human KARPAS-45 cell growth in a cell viability assay.

[2] = tested on: LB771-HNC; type: functional, cell-based, Homo sapiens; conditions: Homo sapiens, LB771-HNC;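 note: growth inhibition of LB771-HNC human cells, read out with a cell viability assay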
Description: SANGER: Inhibition of human LB771-HNC cell growth in a cell viability assay.

[3] = tested on: NCI-H596; type: functional, cell-based, Homo sapiens; conditions: Homo sapiens, NCI-H596;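 note: growth inhibition of NCI-H596 cells, read out with a cell viability assay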
Description: SANGER: Inhibition of human NCI-H596 cell growth in a cell viability assay.

[4] = tested on: TK-10; type: functional, cell-based, Homo sapiens; conditions: Homo sapiens, TK-10;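 note: growth inhibition of TK-10 cells, read out in a cell viability assay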
Description: SANGER: Inhibition of human TK10 cell growth in a cell viability assay.

[5] = tested on: NCI-H2228; type: functional, cell-based, Homo sapiens; conditions: Homo sapiens, NCI-H2228;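 note: growth inhibition of human NCI-H2228 cells, read out by a cell viability assay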
Description: SANGER: Inhibition of human NCI-H2228 cell growth in a cell viability assay.

[6] = tested on: IGR-1; type: functional, cell-based, Homo sapiens; conditions: Homo sapiens, IGR-1;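 note: growth inhibition of human IGR-1 cells, read out with a cell viability assay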
Description: SANGER: Inhibition of human IGR-1 cell growth in a cell viability assay.

[7] = tested on: MHH-PREB-1; type: functional, cell-based; conditions: Homo sapiens;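 note: cell viability assay measuring inhibition of proliferation of human MHH-PREB-1 cells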
Description: SANGER: Inhibition of human MHH-PREB-1 cell growth in a cell viability assay.

[8] = tested on: EFO-27; type: functional, cell-based, Homo sapiens; conditions: Homo sapiens, EFO-27;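 note: growth inhibition of EFO-27 cells, read out with a cell viability assay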
Description: SANGER: Inhibition of human EFO-27 cell growth in a cell viability assay.

[9] = tested on: SNB-75; type: functional, cell-based, Homo sapiens; conditions: Homo sapiens, SNB-75;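 note: cell viability assay measuring growth inhibition of human SNB-75 cells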
Description: SANGER: Inhibition of human SNB75 cell growth in a cell viability assay.

[10] = tested on: NTERA-2-cl-D1; type: functional, cell-based, Homo sapiens; conditions: Homo sapiens, NTERA-2-cl-D1;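 note: inhibition of cell growth, measured with a cell viability assay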
Description: SANGER: Inhibition of human NTERA-S-cl-D1 cell growth in a cell viability assay.

[11] = tested on: DK-MG; type: functional, cell-based, Homo sapiens; conditions: Homo sapiens, DK-MG;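 note: growth inhibition of DK-MG cells, read out with a cell viability assay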
Description: SANGER: Inhibition of human DK-MG cell growth in a cell viability assay.

[12] = tested on: RPMI-8866; type: functional, cell-based; conditions: Homo sapiens
Description: SANGER: Inhibition of human RPMI-8866 cell growth in a cell viability assay.

[13] = tested on: U-266; type: functional, cell-based; conditions: Homo sapiens
Description: SANGER: Inhibition of human U-266 cell growth in a cell viability assay.

[14] = tested on: UO-31; type: functional, cell-based; conditions: Homo sapiens;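 note: cell viability assay measuring inhibition of cell growth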
Description: SANGER: Inhibition of human U031 cell growth in a cell viability assay.

[15] = tested on: LoVo; type: functional, cell-based; conditions: Homo sapiens;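 note: growth inhibition of human LoVo cells, read out with a cell viability assay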
Description: SANGER: Inhibition of human LoVo cell growth in a cell viability assay.

[16] = tested on: NCI-H1770; type: functional, cell-based; conditions: Homo sapiens;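 note: growth inhibition of NCI-H1770 cells determined with a viability readout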
Description: SANGER: Inhibition of human NCI-H1770 cell growth in a cell viability assay.

[17] = tested on: SN12C; type: functional, cell-based, Homo sapiens; conditions: Homo sapiens, SN12C;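 note: growth inhibition of human SN12C cells, measured by a cell viability assay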
Description: SANGER: Inhibition of human SN12C cell growth in a cell viability assay.

[18] = tested on: SK-NEP-1; type: functional, cell-based; conditions: Homo sapiens;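 note: growth inhibition of human SK-NEP-1 cells, read out by a cell viability assay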
Description: SANGER: Inhibition of human SK-NEP-1 cell growth in a cell viability assay.

[19] = tested on: LOX IMVI; type: functional, cell-based; conditions: Homo sapiens
Description: SANGER: Inhibition of human LOXIMVI cell growth in a cell viability assay.

[20] = tested on: HAL-01; type: functional, cell-based; conditions: Homo sapiens;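 note: growth inhibition of human HAL-01 cells, read out with a cell viability assay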
Description: SANGER: Inhibition of human HAL-01 cell growth in a cell viability assay.

[21] = tested on: A704; type: functional, cell-based, Homo sapiens; conditions: Homo sapiens, A704;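 note: growth inhibition of human A704 cells, read out with a cell viability assay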
Description: SANGER: Inhibition of human A704 cell growth in a cell viability assay.

[22] = tested on: NCI-H810; type: functional, cell-based, Homo sapiens; conditions: Homo sapiens, NCI-H810;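 note: IC50 reflects inhibition of cancer cell line growth, read out with a cell viability assay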
Description: SANGER: Inhibition of human NCI-H810 cell growth in a cell viability assay.

[23] = tested on: NCI-H520; type: functional, cell-based, Homo sapiens; conditions: Homo sapiens, NCI-H520;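 note: growth inhibition of NCI-H520 cells, measured by a cell viability assay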
Description: SANGER: Inhibition of human NCI-H520 cell growth in a cell viability assay.

[24] = tested on: KLE; type: functional, cell-based, Homo sapiens; conditions: Homo sapiens, KLE;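 note: growth inhibition of human KLE cells, read out with a cell viability assay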
Description: SANGER: Inhibition of human KLE cell growth in a cell viability assay.

[25] = tested on: HGC-27; type: functional, cell-based, Homo sapiens; conditions: Homo sapiens, HGC-27;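 note: growth inhibition of human HGC-27 cells, read out in a cell viability assay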
Description: SANGER: Inhibition of human HGC-27 cell growth in a cell viability assay.

[26] = tested on: SNU-5; type: functional, cell-based; conditions: Homo sapiens;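 note: cell viability readout used to measure growth inhibition in human NCI-SNU-5 cells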
Description: SANGER: Inhibition of human NCI-SNU-5 cell growth in a cell viability assay.

[27] = tested on: CAL-39; type: functional, cell-based, Homo sapiens; conditions: Homo sapiens, CAL-39;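 note: cell viability assay measuring growth inhibition of CAL-39 cells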
Description: SANGER: Inhibition of human CAL-39 cell growth in a cell viability assay.

[28] = tested on: AGS; type: functional, cell-based, Homo sapiens; conditions: Homo sapiens, AGS;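 note: growth inhibition of AGS cells, determined with a cell viability assay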
Description: SANGER: Inhibition of human AGS cell growth in a cell viability assay.

[29] = tested on: KP-4; type: functional, cell-based, Homo sapiens; conditions: Homo sapiens, KP-4; read-out: IC50;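 note: human KP-4 cells, with growth inhibition read out through a cell viability assay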
Description: SANGER: Inhibition of human KP-4 cell growth in a cell viability assay.

[30] = tested on: OE33; type: functional, cell-based, Homo sapiens; conditions: Homo sapiens, OE33;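 note: growth inhibition of human OE33 cells, measured by a cell viability assay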
Description: SANGER: Inhibition of human OE33 cell growth in a cell viability assay.

[31] = tested on: CAS-1; type: functional, cell-based, Homo sapiens; conditions: Homo sapiens, CAS-1;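 note: growth inhibition of CAS-1 cells, measured with a cell viability assay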
Description: SANGER: Inhibition of human CAS-1 cell growth in a cell viability assay.

[32] = tested on: IST-SL1; type: functional, cell-based, Homo sapiens; conditions: Homo sapiens, IST-SL1;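 note: growth inhibition of human IST-SL1 cells, read out with a cell viability assay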
Description: SANGER: Inhibition of human IST-SL1 cell growth in a cell viability assay.

[33] = tested on: SCC-9; type: functional, cell-based, Homo sapiens; conditions: Homo sapiens, SCC-9;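 note: Read-out is a cell viability assay, with values giving inhibition of cell growth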
Description: SANGER: Inhibition of human SCC-9 cell growth in a cell viability assay.

[34] = tested on: IGROV-1; type: functional, cell-based, Homo sapiens; conditions: Homo sapiens, IGROV-1;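 note: reduction of IGROV-1 cell growth, read out with a viability assay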
Description: SANGER: Inhibition of human IGROV-1 cell growth in a cell viability assay.

[35] = tested on: MCF7; type: functional, cell-based, Homo sapiens; conditions: Homo sapiens, MCF7;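 note: growth inhibition of human MCF7 cells, read out with a cell viability assay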
Description: SANGER: Inhibition of human MCF7 cell growth in a cell viability assay.

[36] = tested on: LU-134-A; type: functional, cell-based; conditions: Homo sapiens
Description: SANGER: Inhibition of human LU-134-A cell growth in a cell viability assay.

[37] = tested on: COLO-800; type: functional, cell-based, Homo sapiens; conditions: Homo sapiens, COLO-800;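 note: growth inhibition of COLO-800 cells, read out with a cell viability assay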
Description: SANGER: Inhibition of human COLO-800 cell growth in a cell viability assay.

[38] = tested on: GOTO; type: functional, cell-based, Homo sapiens; conditions: Homo sapiens, GOTO;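 note: growth inhibition of GOTO cells, read out by a cell viability assay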
Description: SANGER: Inhibition of human GOTO cell growth in a cell viability assay.

[39] = tested on: BEN; type: functional, cell-based, Homo sapiens; conditions: Homo sapiens, BEN;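 note: growth inhibition of the BEN cell line, read out with a cell viability assay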
Description: SANGER: Inhibition of human BEN cell growth in a cell viability assay.

[40] = tested on: NCI-H1648; type: functional, cell-based, Homo sapiens; conditions: Homo sapiens, NCI-H1648;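 note: cell viability assay measuring inhibition of NCI-H1648 cell growth, from the Sanger screening data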
Description: SANGER: Inhibition of human NCI-H1648 cell growth in a cell viability assay.

[41] = tested on: OVCAR-3; type: functional, cell-based, Homo sapiens; conditions: Homo sapiens, OVCAR-3;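 note: growth inhibition of human OVCAR-3 cells, determined by a cell viability assay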
Description: SANGER: Inhibition of human OVCAR-3 cell growth in a cell viability assay.

[42] = tested on: COLO-678; type: functional, cell-based, Homo sapiens; conditions: Homo sapiens, COLO-678
Description: SANGER: Inhibition of human COLO-678 cell growth in a cell viability assay.

[43] = tested on: RO82-W-1; type: functional, cell-based, Homo sapiens; conditions: Homo sapiens, RO82-W-1;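 note: growth inhibition of human RO82-W-1 cells, measured with a cell viability assay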
Description: SANGER: Inhibition of human RO82-W-1 cell growth in a cell viability assay.

[44] = tested on: K562; type: functional, cell-based; conditions: Homo sapiens
Description: SANGER: Inhibition of human K-562 cell growth in a cell viability assay.

[45] = tested on: HCT-116; type: functional, cell-based, Homo sapiens; conditions: Homo sapiens, HCT-116
Description: SANGER: Inhibition of human HCT-116 cell growth in a cell viability assay.

[46] = tested on: ALL-PO; type: functional, cell-based; conditions: Homo sapiens;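 note: growth inhibition of ALL-PO cells, read out by a cell viability assay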
Description: SANGER: Inhibition of human ALL-PO cell growth in a cell viability assay.

[47] = tested on: D-336MG; type: functional, cell-based, Homo sapiens; conditions: Homo sapiens, D-336MG
Description: SANGER: Inhibition of human D-336MG cell growth in a cell viability assay.

[48] = tested on: CAL-120; type: functional, cell-based, Homo sapiens; conditions: Homo sapiens, CAL-120;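 note: cell growth inhibition, read out as cell viability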
Description: SANGER: Inhibition of human CAL-120 cell growth in a cell viability assay.

[49] = tested on: VMRC-RCZ; type: functional, cell-based; conditions: Homo sapiens;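 note: growth inhibition measured with a cell viability assay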
Description: SANGER: Inhibition of human VMRC-RCZ cell growth in a cell viability assay.

[50] = tested on: NY; type: functional, cell-based, Homo sapiens; conditions: Homo sapiens, NY
Description: SANGER: Inhibition of human NY cell growth in a cell viability assay.

[51] = tested on: MN-60; type: functional, cell-based; conditions: Homo sapiens;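 note: growth inhibition of the MN-60 cell line, determined with a cell viability assay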
Description: SANGER: Inhibition of human MN-60 cell growth in a cell viability assay.

[52] = tested on: HCC1569; type: functional, cell-based, Homo sapiens; conditions: Homo sapiens, HCC1569;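 note: growth inhibition of human HCC1569 cells, read out with a cell viability assay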
Description: SANGER: Inhibition of human HCC1569 cell growth in a cell viability assay.

[53] = tested on: MS-1; type: functional, cell-based; conditions: Homo sapiens;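 note: growth inhibition of MS-1 cells, read out by cell viability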
Description: SANGER: Inhibition of human MS-1 cell growth in a cell viability assay.

Measured: IC50

Cc1cnc(-c2cnc(NCCNc3ccc(C#N)cn3)nc2-c2ccc(Cl)cc2Cl)[nH]1 [LADUVIGLUSIB]
0.846 µM: [47]
0.588 µM: [19]
> 2.56 µM: all other assays above

COc1ccc(C2=N[C@@H](c3ccc(Cl)cc3)[C@@H](c3ccc(Cl)cc3)N2C(=O)N2CCNC(=O)C2)c(OC(C)C)c1 [NUTLIN-3]
6.15 µM: [28]
3.86 µM: [19]
3.44 µM: [51]
3.3 µM: [45]
6.02 µM: [15]
3.84 µM: [38]
2.62 µM: [11]
2.56 µM: [12]
5.44 µM: [35]
> 8 µM: all other assays above

CN(c1ncccc1CNc1nc(Nc2ccc3c(c2)CC(=O)N3)ncc1C(F)(F)F)S(C)(=O)=O [PF-00562271]
1.86 µM: [47]
2.42 µM: [27]
1.52 µM: [28]
1.11 µM: [22]
1.02 µM: [46]
2.52 µM: [8]
0.81 µM: [34]
> 2.56 µM: all other assays above

Cn1cc(C2=C(c3ccc(Cl)cc3Cl)C(=O)NC2=O)c2ccccc21 [SB-216763]
9.02 µM: [32]
0.294 µM: [16]
> 10 µM: all other assays above
